{"source": "patent EP2955182A1", "about": "“Pyridazinones for the treatment of cancer” (Max-Planck-Gesellschaft zur Förderung der Wissenschaften …, priority 2014, dated 2015)"}
{"molecular_target": "PDEδ (Homo sapiens, UniProt O43924)", "experiment": "Fluorescence polarization competition binding assay (displacement titration of labeled Atorvastatin-probe)", "conditions": "fluorescence polarization assay, displacement of fluorescent-tagged Atorvastatin analog from PDEδ; read-out: KD", "description": "Example C.2: Displacement titrations of labeled Atorvastatin-probe for the determination of KD values:\nTable 3. KD values for compounds of general formula (I) as determined by means of fluorescence polarization assay", "units": {"Kd": "nM"}}
{"smiles": "Cc1nn(CCCC(=O)NCCc2ccccc2)c(=O)c2nn(-c3ccccc3)c(C)c12", "note": "[Compound 36, 4-(3,4-dimethyl-7-oxo-2-phenyl-2H-pyrazolo[3,4-d]pyridazin-6(7H)-yl)-N-phenethylbutanamide]", "Kd": "< 30"}
{"smiles": "COc1ccc(CNC(=O)CCCn2nc(C)c3c(C)n(-c4ccc(C)cc4)nc3c2=O)cc1", "note": "[Compound 43, 4-(3,4-dimethyl-7-oxo-2-(p-tolyl)-2H-pyrazolo[3,4-d]pyridazin-6(7H)-yl)-N-(4-methoxybenzyl)butanamide]", "Kd": "< 30"}
{"smiles": "Cc1c2cnn(-c3ccccc3)c(=O)c2c(C)n1CCCC(=O)NCc1ccco1", "note": "[Compound 7, 4-(5,7-dimethyl-1-oxo-2-phenyl-1H-pyrrolo[3,4-d]pyridazin-6(2H)-yl)-N-(furan-2-ylmethyl)butanamide]", "Kd": "100 to 1000"}
{"smiles": "Cc1ccc(-c2nnc(CCCn3c(C)c4cnn(-c5ccccc5)c(=O)c4c3C)o2)cc1", "note": "[Compound 23, 5,7-dimethyl-2-phenyl-6-(3-(5-(p-tolyl)-1,3,4-oxadiazol-2-yl)propyl)-2,6-dihydro-1H-pyrrolo[3,4-d]pyridazin-1-one]", "Kd": "> 1000"}
{"smiles": "Cc1c2cnn(-c3ccccc3)c(=O)c2c(C)n1CCCc1nc(-c2ccc(F)cc2)no1", "note": "[Compound 21, 6-(3-(3-(4-fluorophenyl)-1,2,4-oxadiazol-5-yl)propyl)-5,7-dimethyl-2-phenyl-2,6-dihydro-1H-pyrrolo[3,4-d]pyridazin-1-one]", "Kd": "100 to 1000"}
{"smiles": "Cc1ccc(CNC(=O)CCCn2nc(C)c3c(C)n(-c4ccc(C)cc4)nc3c2=O)cc1", "note": "[Compound 44, 4-(3,4-dimethyl-7-oxo-2-(p-tolyl)-2H-pyrazolo[3,4-d]pyridazin-6(7H)-yl)-N-(4-methylbenzyl)butanamide]", "Kd": "< 30"}
{"smiles": "Cc1ccc(-n2nc3c(=O)n(CCCC(=O)NCCc4ccc(Cl)cc4)nc(C)c3c2C)cc1", "note": "[Compound 48, N-(4-chlorophenethyl)-4-(3,4-dimethyl-7-oxo-2-(p-tolyl)-2H-pyrazolo[3,4-d]pyridazin-6(7H)-yl)butanamide]", "Kd": "< 30"}
{"smiles": "Cc1c2cnn(-c3ccccc3)c(=O)c2c(C)n1CCCC(=O)NC1CC1", "note": "[Compound 9, N-cyclopropyl-4-(5,7-dimethyl-1-oxo-2-phenyl-1H-pyrrolo[3,4-d]pyridazin-6(2H)-yl)butanamide]", "Kd": "100 to 1000"}
{"smiles": "Cc1c2cnn(-c3ccccc3)c(=O)c2c(C)n1CCCC(=O)NCc1ccccc1Cl", "note": "[Compound 4, N-(2-chlorobenzyl)-4-(5,7-dimethyl-1-oxo-2-phenyl-1H-pyrrolo[3,4-d]pyridazin-6(2H)-yl)butanamide]", "Kd": "< 30"}
{"smiles": "Cc1ccc(-n2nc3c(=O)n(CCCC(=O)NCC4CCCO4)nc(C)c3c2C)cc1", "note": "(stereo not shown) [Compound 39, 4-(3,4-dimethyl-7-oxo-2-(p-tolyl)-2H-pyrazolo[3,4-d]pyridazin-6(7H)-yl)-N-((tetrahydrofuran-2-yl)methyl)butanamide]", "Kd": "30 to 100"}
{"smiles": "Cc1ccc(CCNC(=O)CCCn2nc(C)c3c(C)n(-c4ccc(C)cc4)nc3c2=O)cc1", "note": "[Compound 47, 4-(3,4-dimethyl-7-oxo-2-(p-tolyl)-2H-pyrazolo[3,4-d]pyridazin-6(7H)-yl)-N-(4-methylphenethyl)butanamide]", "Kd": "< 30"}
{"smiles": "Cc1ccc(CNC(=O)CCCn2nc(C)c3c(C)n(-c4ccccc4)nc3c2=O)cc1", "note": "[Compound 35, 4-(3,4-dimethyl-7-oxo-2-phenyl-2H-pyrazolo[3,4-d]pyridazin-6(7H)-yl)-N-(4-methylbenzyl)butanamide]", "Kd": "30 to 100"}
{"smiles": "Cc1ccc(-c2noc(CCCn3c(C)c4cnn(-c5ccccc5)c(=O)c4c3C)n2)cc1", "note": "[Compound 17, 5,7-dimethyl-2-phenyl-6-(3-(3-(p-tolyl)-1,2,4-oxadiazol-5-yl)propyl)-2,6-dihydro-1H-pyrrolo[3,4-d]pyridazin-1-one]", "Kd": "> 1000"}
{"smiles": "Cc1c2cnn(-c3ccccc3)c(=O)c2c(C)n1CCCC(=O)NC1CCCC1", "note": "[Compound 10, N-cyclopentyl-4-(5,7-dimethyl-1-oxo-2-phenyl-1H-pyrrolo[3,4-d]pyridazin-6(2H)-yl)butanamide]", "Kd": "30 to 100"}
{"smiles": "Cc1ccc(-n2nc3c(=O)n(CCCC(=O)NCc4cccnc4)nc(C)c3c2C)cc1", "note": "[Compound 41, 4-(3,4-dimethyl-7-oxo-2-(p-tolyl)-2H-pyrazolo[3,4-d]pyridazin-6(7H)-yl)-N-(pyridin-3-ylmethyl)butanamide]", "Kd": "100 to 1000"}
{"smiles": "Cc1c2cnn(-c3ccccc3)c(=O)c2c(C)n1CCCC(=O)NC1CCC(C)CC1", "note": "(stereo not shown) [Compound 12, 4-(5,7-dimethyl-1-oxo-2-phenyl-1H-pyrrolo[3,4-d]pyridazin-6(2H)-yl)-N-(4-methylcyclohexyl)butanamide]", "Kd": "< 30"}
{"system": "BxPC-3", "experiment": "Real time cell analysis (RTCA) impedance proliferation measurement", "format": "cell-based", "conditions": "administered 24 hours after seeding, monitored up to 100 hours"}
{"smiles": "Cc1ccc(-n2nc3c(=O)n(CCCC(=O)NCC(C)c4ccccc4)nc(C)c3c2C)cc1", "note": "(stereo not shown) [Compound 50, 4-(3,4-dimethyl-7-oxo-2-(p-tolyl)-2H-pyrazolo[3,4-d]pyridazin-6(7H)-yl)-N-(2-phenylpropyl)butanamide]", "proliferation of K-Ras dependent cells": "inhibits the proliferation"}
{"system": "Panc-Tu-I", "experiment": "Real time cell analysis (RTCA) impedance proliferation measurement", "conditions": "Panc-Tu-I (Figure 6f); after a certain time"}
{"smiles": "Cc1ccc(-n2nc3c(=O)n(CCCC(=O)NCC(C)c4ccccc4)nc(C)c3c2C)cc1", "note": "(stereo not shown) [Compound 50, 4-(3,4-dimethyl-7-oxo-2-(p-tolyl)-2H-pyrazolo[3,4-d]pyridazin-6(7H)-yl)-N-(2-phenylpropyl)butanamide]", "cell death": "leading after a certain time to cell death"}
{"system": "Panc-Tu-I", "experiment": "Real time cell analysis (RTCA) impedance proliferation measurement", "conditions": "Panc-Tu-I; administered 24 hours after seeding; monitored up to 100 hours"}
{"smiles": "Cc1ccc(-n2nc3c(=O)n(CCCC(=O)NCC(C)c4ccccc4)nc(C)c3c2C)cc1", "note": "(stereo not shown) [Compound 50, 4-(3,4-dimethyl-7-oxo-2-(p-tolyl)-2H-pyrazolo[3,4-d]pyridazin-6(7H)-yl)-N-(2-phenylpropyl)butanamide]", "proliferation of K-Ras dependent cells": "inhibits the proliferation"}
